In patent US20250381307A1, “RETRO-AAV AND USE IN TREATING NEURODEGENERATIVE DISEASES” (priority 2023, published 2025):

T1: rM3Ds (Rattus norvegicus, UniProt P08483, A177S/A238G/A489L/DEL261-437/DEL441-478/E258S/I253V/I483M/INS256[…]/K178L/K182A/K255R/K484R/K486H/L173F/L482A/M480V/R171S/R176Q/R179M/S481M/T174R/T181R/T257A/Y148C)
T1 sequence (P08483 with tags, fused parts or gaps Y148C/R171S/L173F/T174R/R176Q/A177S/K178L/R179M/T181R/K182A/A238G/I253V/K255R/INS256[…]/T257A/E258S/DEL261-437/DEL441-478/M480V/S481M/L482A/I483M/K484R/K486H/A489L): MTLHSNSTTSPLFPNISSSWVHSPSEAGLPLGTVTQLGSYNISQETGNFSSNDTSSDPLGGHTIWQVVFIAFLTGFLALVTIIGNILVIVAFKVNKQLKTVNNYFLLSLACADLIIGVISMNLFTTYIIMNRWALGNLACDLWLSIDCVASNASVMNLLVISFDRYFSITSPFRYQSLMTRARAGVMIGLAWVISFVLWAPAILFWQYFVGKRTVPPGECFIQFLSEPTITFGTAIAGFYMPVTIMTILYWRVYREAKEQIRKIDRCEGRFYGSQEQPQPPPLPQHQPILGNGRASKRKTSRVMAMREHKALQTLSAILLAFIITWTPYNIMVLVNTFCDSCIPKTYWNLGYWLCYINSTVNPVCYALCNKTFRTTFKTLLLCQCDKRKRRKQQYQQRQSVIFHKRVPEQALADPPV


Columns and labels:
rM3Ds [1] = biological target: T1, rM3Ds; experiment: In vivo electrophysiological recording in caudate/putamen of MPP+ lesioned macaques; design: rM3Ds; 2A-EYFP (C); host or cells: AAV8R12-transduced striatal D1-MSNs of mice and cynomolgus macaques (in vivo and acute slices)
Protocol: Electrophysiological recording was performed through a recording chamber while the monkey was anesthetized. Neural responses were recorded by a 16-channel linear probe (Plexon Inc, Uprobe) driven by a mechanical microdrive (Alpha Omega, FlexMT). Signals were passed through a head stage (Plexon Inc, HST/16V-G20 LN) and then split and filtered between 300 Hz and 5 kHz to identify spiking activity with an amplifier system (Plexon Inc, OmniPlex). Detected spikes were then sorted by commercially available software (Plexon Inc, Offline Sorter) for further analysis. To quantify the effect of CNO/DCZ injection, neural activity was recorded for 60 minutes following CNO/DCZ injection. The response time-course for each channel was obtained by counting the spikes within every 10-minute window and then normalizing to the maximal.
To determine the effect of CNO/DCZ injection on the direction of signal change, we performed Pearson correlation between neural responses and time using the ‘corr’ function in Matlab, which generates the correlation coefficient ‘r’ and significant level ‘p’. A neuron was considered to have “Increased” activity when r>0 and p<0.05; and considered to have “Decreased” activity when r<0 and p<0.05. Otherwise, neurons were considered to be “Unchanged” in their neural activities. The responses of all increased neurons were then averaged after being normalized by the maximal response (Crowe et al., 2014; Dai and Wang, 2018; Hirokawa et al., 2019) following CNO/DCZ injection, and then plotted as a function of time to generate the normalized population response.

[2] = Locomotion test in naive macaques without viral injection; type: in vivo; conditions: DCZ 0.3 mg/kg i.m., FIG. 35A-35G
[3] = Blood test of liver- and kidney-related factors during DCZ treatment; type: in vivo, macaques; conditions: FIG. 36B-36F
Excerpt: FIG. 36A-36F depict effects of D1-MSN activation on dyskinesia-like behavior and health state-related blood factors in parkinsonian macaques. FIG. 36A illustrates quantitation of dyskinesia score at 2 months, 4 months, and 8 months after treatment with DCZ. n=3 monkeys per group.

rM3Ds [4] = biological target: T1, rM3Ds
Protocol: Monkeys were continuously monitored by veterinarians after lesion.
Dyskinesia score criteria were: 0: Absent. 1: Mild, fleeting, present <30% of the observation period.
Each block included ten continuous trials.
Customized surface EMG electrodes were used for EMG recordings. […] The recording procedure was conducted immediately after DCZ infusions.

[5] = CSF concentration of DCZ by LC-MS; type: in vivo, macaques; conditions: 24 hours after drug infusion, 0.3 mg/kg i.m., FIG. 24D
Excerpt: One month of washout was allowed before administration of DCZ.

[6] = tested on: striatonigral projection neurons (striatal MSNs); experiment: Retrograde labeling of striatal MSNs after AAV injection into the SNr (EYFP+ cell counting); type: in vivo, mice; conditions: for labeled striatonigral projection neurons (FIG. 2C): SNr injection, wild type mice, n=3, mean±SEM
Procedure, shortened: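 Mice under sodium pentobarbital (80 mg/kg, i.p.) received stereotaxic injection of 200 nL AAV carrying ~2 kb human promoter/enhancer sequences driving reporter into SNr (3.4 mm posterior, 1.3 mm lateral, 4.8 mm ventral to bregma) at 20 nL/min. EYFP+ striatal cells counted manually by two blinded experimenters on every sixth section, multiplied by six.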

[7] = tested on: MSNs in nucleus accumbens; experiment: Retrograde labeling of accumbal MSNs after delivery into ventral pallidum or lateral hypothalamus; type: in vivo, mouse; conditions: stereotaxic delivery into ventral pallidum or lateral hypothalamus

Row | Molecule | caudate/putamen cells activated (FIG. 15G) (rM3Ds [1]; CNO 36 cells, DCZ 31 cells, saline 17.9%) [%] | caudate/putamen cells inactivated (FIG. 15G) (rM3Ds [1]; saline 33.4%) [%] | caudate/putamen cells unchanged (FIG. 15G) (rM3Ds [1]; saline 48.7%) [%] | motor-related behaviors in naïve monkeys [2] | blood levels of common liver- and kidney-related factors (ALT, AST, GGT, CREA, BUN) [3] | efficacy after extended prior L-Dopa administration (rM3Ds [4]; 4 months prior L-Dopa, 1 month washout, FIG. 24F-24L) | alleviation of parkinsonian symptoms over long-term treatment (rM3Ds [4]; 8-month continuous treatment with DCZ) | motor skills (rM3Ds [4]; DCZ, hand to mouth movement) | alleviation of symptoms after each dose at steady-state efficacy (rM3Ds [4]; FIG. 24C) | parkinsonian symptoms (rM3Ds [4]; MPP+ macaques with AAV8R12-G88P7-rM3Ds-2A-EYFP, DCZ 0.3 mg/kg i.m., L-Dopa/benserazide 20/5 mg/kg/day oral) | tremor (rM3Ds [4]; after DCZ treatment, EMG) | speed of reversal of symptoms (rM3Ds [4]; initial phase of drug administration, FIG. 24B) | dyskinesia (rM3Ds [4]; long-term treatment) | duration of effect (FIG. 18C) (rM3Ds [4]; n=3 monkeys) | spontaneous movement in an observation cage (rM3Ds [4]; systemic DCZ) | DCZ levels in cerebrospinal fluid [5] | labeled striatonigral projection neurons (FIG. 2C) [6] | labeling of MSNs in nucleus accumbens [7] | Labeling Efficiency in Striatonigral Pathway ([6]; AAV8R capsid mutants, numbers of labeled neurons per animal) | times EYFP positive / labeled MSNs compared to rAAV2-retro ([6]; after nigral delivery, hSyn-EYFP) [times]
1 | CN1CCN(C2=Nc3ccccc3Nc3ccccc32)CC1 [DCZ, deschloroclozapine] | 41.9 | 9.7 | 48.4 | did not alter motor-related behaviors | remained stable | did not affect the efficacy of DCZ treatment or the absence of dyskinesia | appeared to be consistent | a significant recovery of motor skills | at least 24 hours | a reversal of canonical parkinsonian symptoms in all tested monkeys | great reduced or even eliminated | faster reversal of symptoms than levodopa | dyskinesia-free | over 24 hr | an increase in spontaneous movement | no detectable levels |  |  |  | 
2 | AAV8R: AAV8 capsid with N385D, insertion of SEQ ID NO: 31 at position 588 and TS to IN mutation (SEQ ID NO: 1) (protein) MAADGYLPDWLEDNLSEGIREWWALKPGAPKPKANQQKQDDGRGLVLPGYKYLGPFNGLDKGEPVNAADAAALEHDKAYDQQLQAGDNPYLRYNHADAEFQERLQEDTSFGGNLGRAVFQAKKRVLEPLGLVEEGAKTAPGKKRPVEPSPQRSPDSSTGIGKKGQQPARKRLNFGQTGDSESVPDPQPLGEPPAAPSGVGPNTMAAGGGAPMADNNEGADGVGSSSGNWHCDSTWLGDRVITTSTRTWALPTYNNHLYKQISNGTSGGATNDNTYFGYSTPWGYFDFNRFHCHFSPRDWQRLINNNWGFRPKRLSFKLFNIQVKEVTQNEGTKTIANNLTSTIQVFTDSEYQLPYVLGSAHQGCLPPFPADVFMIPQYGYLTLNDGSQAVGRSSFYCLEYFPSQMLRTGNNFQFTYTFEDVPFHSSYAHSQSLDRLMNPLIDQYLYYLSRTQTTGGTANTQTLGFSQGGPNTMANQAKNWLPGPCYRQQRVSTTTGQNNNSNFAWTAGTKYHLNGRNSLANPGIAMATHKDDEERFFPSNGILIFGKQNAARDNADYSDVMLTSEEEIKTTNPVATEEYGIVADNLQRGNLADQDYTKTARQAATADVNSQGALPGMVWQNRDVYLQGPIWAKIPHTDGNFHPSPLMGGFGLKHPPPQILIKNTPVPADPPTTFNQSKLNSFITQYSTGQVSVEIEWELQKENSKRWNPEIQYTSNYYKSINVDFAVNTEGVYSEPRPIGTRYLTRNL |  |  |  |  |  |  |  |  |  |  |  |  |  |  |  |  | 10092±463.9 | robust labeling |  | 
3 | AAV8R12: AAV8R capsid mutant V183E + N411S (SEQ ID NO: 13; SEQ ID NO: 59) (protein) MAADGYLPDWLEDNLSEGIREWWALKPGAPKPKANQQKQDDGRGLVLPGYKYLGPFNGLDKGEPVNAADAAALEHDKAYDQQLQAGDNPYLRYNHADAEFQERLQEDTSFGGNLGRAVFQAKKRVLEPLGLVEEGAKTAPGKKRPVEPSPQRSPDSSTGIGKKGQQPARKRLNFGQTGDSESEPDPQPLGEPPAAPSGVGPNTMAAGGGAPMADNNEGADGVGSSSGNWHCDSTWLGDRVITTSTRTWALPTYNNHLYKQISNGTSGGATNDNTYFGYSTPWGYFDFNRFHCHFSPRDWQRLINNNWGFRPKRLSFKLFNIQVKEVTQNEGTKTIANNLTSTIQVFTDSEYQLPYVLGSAHQGCLPPFPADVFMIPQYGYLTLNDGSQAVGRSSFYCLEYFPSQMLRTGNSFQFTYTFEDVPFHSSYAHSQSLDRLMNPLIDQYLYYLSRTQTTGGTANTQTLGFSQGGPNTMANQAKNWLPGPCYRQQRVSTTTGQNNNSNFAWTAGTKYHLNGRNSLANPGIAMATHKDDEERFFPSNGILIFGKQNAARDNADYSDVMLTSEEEIKTTNPVATEEYGIVADNLQRGNLADQDYTKTARQAATADVNSQGALPGMVWQNRDVYLQGPIWAKIPHTDGNFHPSPLMGGFGLKHPPPQILIKNTPVPADPPTTFNQSKLNSFITQYSTGQVSVEIEWELQKENSKRWNPEIQYTSNYYKSINVDFAVNTEGVYSEPRPIGTRYLTRN |  |  |  |  |  |  |  |  |  |  |  |  |  |  |  |  | 16026±1654 | robust labeling | +++ (10k-25k) | 7.72±0.78
